These results are taken from publication PMC8877149, “A Fungal Defensin Inhibiting Bacterial Cell-Wall Biosynthesis with Non-Hemolysis and Serum Stability” (Journal of Fungi, 2022).

The subject of data set [1] is Penicillin-sensitive Staphylococcus epidermidis P1111. The data set can be described thus: Inhibition-zone assay, lethal concentration (CL). The following applies: penicillin-sensitive S. epidermidis P1111. The format is cell-based. The procedure: (§1) The inhibition-zone assay was used to quantify the antibacterial activity of Py4, as described previously. In brief, an overnight bacterial culture from a single colony was inoculated into fresh medium and grew to the late log-phase. A 10 μL aliquot of each culture was diluted in 6 mL pre-heated medium containing 0.8% agar. The mixture was spread on a 9-cm Petri dish, giving a depth of 1 mm. After settling, 3-mm wells were punched in the plate and then 2 μL peptide samples of different concentrations were added to each well. The agar plates were incubated overnight at indicated temperatures. A lethal concentration (CL) was calculated from a plot of d^2 against log n, where d is the diameter (in cm) and n is the amount of sample applied in the well (in nmol). The plot is linear and thus CL can be calculated from the slope (k) and the intercept (m) of this plot. The formula used here was CL = 2.93/ak10^m/k, where a is the thickness of the bacterial plate and CL is in μM.

Data set [2] relates to Staphylococcus aureus J685. The data set can be described thus: Inhibition-zone assay, lethal concentration (CL). Format: cell-based. The following applies: S. aureus J685. The method, then:
as §1

Data set [3] has as its system Staphylococcus warneri CGMCC 1.2824. The data set can be described thus: Inhibition-zone assay, lethal concentration (CL). Format: cell-based. The method, then:
as §1

Data set [4] has as its system Staphylococcus aureus CGMCC 1.89. The data set can be described thus: Inhibition-zone assay, lethal concentration (CL). The format is cell-based. The method, then:
as §1

Data set [5] has as its system Staphylococcus aureus J706. The data set can be described thus: Inhibition-zone assay, lethal concentration (CL). The format is cell-based. The following applies: S. aureus J706. The procedure: as §1
Data set [6] relates to Penicillin-resistant Staphylococcus epidermidis P1389. The data set can be described thus: Inhibition-zone assay, lethal concentration (CL). The format is cell-based. The following applies: penicillin-resistant S. epidermidis P1389. The method, then: as §1
Data set [7] has as its system Staphylococcus aureus J698. The data set can be described thus: Inhibition-zone assay, lethal concentration (CL). The format is cell-based. The following applies: S. aureus J698. The procedure: as §1
The subject of data set [8] is Bacillus megaterium CGMCC 1.0459. The data set can be described thus: Inhibition-zone assay, lethal concentration (CL). The format is cell-based. The procedure: as §1
The next data set concerns Curtobacterium luteum. The data set can be described thus: Inhibition-zone assay, lethal concentration (CL). Format: cell-based. The method, then: as §1
Data set [9] deals with Methicillin-resistant Staphylococcus aureus P1374. The data set can be described thus: Inhibition-zone assay, lethal concentration (CL). The format is cell-based. The following applies: methicillin-resistant S. aureus P1374. The procedure: as §1
The subject of data set [10] is Methicillin-resistant Staphylococcus aureus P1386. The data set can be described thus: Inhibition-zone assay, lethal concentration (CL). The following applies: methicillin-resistant S. aureus P1386. The format is cell-based. The method, then:
as §1

Data set [11] has as its system Methicillin-resistant coagulase negative Staphylococci P1369. The data set can be described thus: Inhibition-zone assay, lethal concentration (CL). Format: cell-based. The method, then:
as §1

Data set [12] concerns fresh erythrocytes from ICR mice. The data set can be described thus: Hemolysis assay. Format: cell-based, Mus musculus. The following applies: 3.125 to 25 µM, 2-fold serial dilutions, in 0.9% NaCl; A570; 100% = 1% Triton X-100. The method, then: (§2) Hemolytic activity of peptides against fresh erythrocytes from ICR mice (Mus musculus) was assayed according to the standard method. Peptides were diluted with 0.9% NaCl to the indicated concentration. The percentage of hemolysis is determined as (Apep − Ablank)/(Atot − Ablank) × 100, in which “A” represents absorbance measured at 570 nm. Ablank and Apep were evaluated in the absence or presence of peptides. One hundred percent hemolysis (Atot) was obtained in the presence of 1% Triton X-100. For the stability assay, Py4 was incubated in H2O or fresh mouse serum for the indicated times at 37 °C and their residual activity was measured by the inhibition-zone assay.

The nature of data set [13]: Serum stability assay (residual activity by inhibition-zone assay). Format: in vitro ADME. The following applies: undiluted fresh mouse serum, 37 °C, read-out inhibition zone on B. megaterium, 0.2 nmol/well, ns vs 0 h. The method, then: as §2
A further data set relates to S. warneri cells. The data set can be described thus: Cytoplasmic accumulation of UDP-MurNAc-pentapeptide (UMP). The format is cell-based, Staphylococcus warneri. The following applies: 130 µg/mL chloramphenicol pre-treatment 15 min, Py4 0.6 µM or vancomycin 2.0 µM, 30 min. The procedure:
The cytoplasmic UDP-MurNAc-pentapeptide (abbreviated as UMP) accumulation experiment was carried out according to the method previously described. In brief, S. warneri cells were grown at 37 °C to an OD600 of 0.5 in 40 mL broth medium and then the culture was supplemented with 130 μg/mL chloramphenicol to impede bacterial cell proliferation by blocking their protein synthesis. After 15 min of incubation, the culture was divided into three equal portions, and one portion was treated with Py4 (0.6 μM), the second with vancomycin (2.0 μM), and the third was used as an untreated control. UMP was extracted from the harvested cells following 30 min of incubation. UMP was identified by MALDI−TOF on MALDI−TOF/TOF Ultraflextreme^TM (Bruker Daltonics, Bremen, Germany) using 2,5-dihydroxybenzoic acid (DHB) as the matrix in the negative-reflection ion mode.

The test system of data set [14] is Bacillus megaterium cells. The data set can be described thus: Membrane permeability assay (propidium iodide fluorescence). The format is cell-based. The following applies: B. megaterium in PBS pH 7.3, 1 µM propidium iodide, peptide or vancomycin at 10 × CL, exc 525 nm / em 595 nm. The method, then: The membrane permeability assay was performed according to the method previously described. Meucin-18 and Meucin-49, two known scorpion venom lytic peptides, were used as positive controls and vancomycin, a known bacterial cell-wall synthesis inhibitor without membrane-disruptive ability as a negative control. Bacillus megaterium cells in 500 μL of phosphate buffered saline (PBS) (pH 7.3) were mixed with 1 μM propidium iodide (PI) for 5 min in the dark. Fluorescence was measured with the F-4500 FL spectrophotometer (Hitachi High-Tech Science Corporation, Tokyo, Japan). Once the basal fluorescence reached a constant value, peptides or vancomycin at 10 × CL were added, and changes in fluorescence arbitrary were monitored (λexc = 525 nm; λems = 595 nm).

The subject of a further data set is S. aureus. Details: key: “+”, activity; “-“, no activity”. The following applies: Figure 6, antibacterial activity; cited from earlier work. From the text: Compared with plectasin, the natural variant Py4 has two point mutations at positions 14 and 33 (Figure 1A) that are respectively located on the α-helix (Q14K) and the C-loop (G33A) (Figure 1A). These two mutations are interesting considering their mutational effects previously reported in plectasin. (1) Position 14. […] Small dots represent identical residues to plectasin. Positions showing differences in the peptides are boxed and the mutated residues relative to plectasin are colored in red. Positions involved in intramolecular epistasis are linked by one line. The arrow points to the position accounting for differential genetic backgrounds between plectasin and Py4. […] “+”, activity; “-“, no activity”. TEXT PRINTED IN THE PICTURE: Ple ...

Where a SMILES comes first, the peptide text is derived from it. Bridges are numbered along the chain shown (N, C = ends).

`CC[C@H](C)[C@@H]1NC(=O)[C@H](CO)NC(=O)[C@H](CCCCN)NC(=O)[C@@H]2CSSC[C@@H](C(=O)N[C@@H](Cc3ccc(O)cc3)C(=O)O)NC(=O)[C@H](CCCCN)NC(=O)[C@@H]3CSSC[C@H](NC(=O)[C@H](CCCCN)NC(=O)[C@H](CCSC)NC(=O)[C@H](CC(=O)O)NC(=O)[C@H](CC(=O)O)NC(=O)[C@H](CCC(=O)O)NC(=O)[C@H](CC(=O)O)NC(=O)[C@H](Cc4c[nH]c5ccccc45)NC(=O)[C@@H]4CCCN4C(=O)CNC(=O)[C@H](CC(N)=O)NC(=O)[C@@H](NC(=O)CNC(=O)[C@H](Cc4ccccc4)NC(=O)CN)CSSC[C@H](NC(=O)[C@H](Cc4ccc(O)cc4)NC(=O)CNC(=O)CNC(=O)[C@H](CCCCN)NC(=O)[C@H](Cc4ccc(O)cc4)NC(=O)CNC(=O)[C@H](CCCCN)NC1=O)C(=O)N[C@@H](C)C(=O)N[C@@H](CCCCN)C(=O)N[C@@H](C)C(=O)NCC(=O)N[C@@H](Cc1ccccc1)C(=O)N[C@@H](C(C)C)C(=O)N3)C(=O)N[C@@H](Cc1c[nH]cn1)C(=O)N[C@@H](CC(N)=O)C(=O)N[C@@H](Cc1c[nH]cn1)C(=O)N2` [Py4, Pyronesin4] (H-GFGCNGPWDEDDMKCHNHCKSIKGYKGGYCAKAGFVCKCY-OH; disulfide 4-30, 15-37, 19-39): the “CL (lethal concentration)” value in data set [1] is 4.03 µM; in [2], 2.69 µM; in data set [3], 1.06 µM; in data set [4], 1.22 µM; in data set [5], 2.51 µM; in data set [6], 4.38 µM. For the same molecule, the “CL (lethal concentration)” value came out at 2.69 µM in data set [7]; 0.67 µM in [8]; 0.03 µM in the data set on Curtobacterium luteum; 2.69 µM in data set [9]; 2.51 µM in [10]; 4.78 µM in [11]. Moreover, in data set [12], the “hemolysis on mouse blood cells” value is on record as “no significant hemolysis”. Besides, the “residual antibacterial activity after incubation in serum” value in data set [13] (24 h) and in data set [13] (48 h) was “retained its full antibacterial activity” throughout.
With `CN[C@H](CC(C)C)C(=O)N[C@H]1C(=O)N[C@@H](CC(N)=O)C(=O)N[C@H]2C(=O)N[C@H]3C(=O)N[C@H](C(=O)N[C@H](C(=O)O)c4cc(O)cc(O)c4-c4cc3ccc4O)[C@H](O)c3ccc(c(Cl)c3)Oc3cc2cc(c3O[C@@H]2O[C@H](CO)[C@@H](O)[C@H](O)[C@H]2O[C@H]2C[C@](C)(N)[C@H](O)[C@H](C)O2)Oc2ccc(cc2Cl)[C@H]1O` [vancomycin], the “cytoplasmic accumulation of UMP (RP-HPLC peak, MALDI-TOF identified)” value in the data set on S. warneri cells is recorded as “common emerging peak”. Further, the “membrane-disruptive activity (PI fluorescence increase)” value in data set [14] was “no obvious fluorescent increase”.
On to “Plectasin (GFGCNGPWDEDDMQCHNHCKSIKGYKGGYCAKGGFVCKCY; UniProt Q53I06 56-95, looked up) [first fungal defensin found in Pseudoplectania nigrella, prototype of fungal defensin-like peptides]”, for which the Activity entry in the data set on S. aureus is “+”.
